In BindingDB's records for patent US11220494 (Pfizer Inc., 2022):

Biological target: Cyclin-dependent kinase 6/G1/S-specific cyclin-D3 (Homo sapiens, UniProt Q00534+P30281)
Assay: Mobility Shift Assay
Protocol: The purpose of the CDK6/Cyclin D3 assay is to evaluate the inhibition (% inhibition, Kiapp and Ki values) in the presence of small molecule inhibitors by using a fluorescence based microfluidic mobility shift assay. […] The mobility shift assay electrophoretically separates the fluorescently labeled peptides (substrate and phosphorylated product) following the kinase reaction. Both substrate and product are measured and the ratio of these values is used to generate % conversion of substrate to product by the LabChip EZ Reader. […] The reaction was stopped after 95 minutes by the addition of 50 μL of 30 mM EDTA. Ki determinations were made from a plot of the fractional velocity as a function of inhibitor concentration fit to the Morrison equation with the enzyme concentration as a variable.

Sequence of Cyclin-dependent kinase 6/G1/S-specific cyclin-D3 (Q00534 whole entry): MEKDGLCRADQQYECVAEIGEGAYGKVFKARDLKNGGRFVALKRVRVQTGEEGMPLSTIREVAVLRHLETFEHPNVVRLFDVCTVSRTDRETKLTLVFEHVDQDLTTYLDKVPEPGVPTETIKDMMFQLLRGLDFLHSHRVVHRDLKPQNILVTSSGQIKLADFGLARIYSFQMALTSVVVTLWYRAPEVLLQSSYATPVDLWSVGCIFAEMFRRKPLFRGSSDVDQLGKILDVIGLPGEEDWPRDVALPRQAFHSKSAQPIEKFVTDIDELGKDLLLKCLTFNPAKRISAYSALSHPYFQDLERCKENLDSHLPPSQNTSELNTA
Sequence of Cyclin-dependent kinase 6/G1/S-specific cyclin-D3 (P30281 whole entry): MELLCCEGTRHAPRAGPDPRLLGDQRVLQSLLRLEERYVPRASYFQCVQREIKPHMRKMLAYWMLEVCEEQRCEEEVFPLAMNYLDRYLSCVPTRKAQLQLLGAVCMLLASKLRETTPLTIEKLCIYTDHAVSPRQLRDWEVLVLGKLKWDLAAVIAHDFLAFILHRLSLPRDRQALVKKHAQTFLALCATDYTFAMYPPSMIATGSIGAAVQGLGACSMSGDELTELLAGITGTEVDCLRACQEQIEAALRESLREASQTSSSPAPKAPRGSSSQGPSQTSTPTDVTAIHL

## CC(C)n1c([C@H](C)O)nc2c(F)cc(-c3cc(N[C@@H]4CCN(S(C)(=O)=O)C[C@H]4O)ncc3Cl)cc21 [US11220494, Example E01]
  Ki: 1.4 nM
